Measured values reported in PMC4742142, “Identification of novel, in vivo active Chk1 inhibitors utilizing structure guided drug design” (Oncotarget, 2015).
pIC50: −log10 of the molar value.

Key:
[1] = test system: A549; assay: Potentiation assay (MTS, 72 hours); type: cell-based, human; conditions: IC50(cytotoxic agent alone) / IC50(combination treatment)
Procedure: (§1) 5 × 10^3 cells per well were seeded in 96-well plates and incubated overnight. […] The effect on cell proliferation was determined using a CellTiter 96 AQueous One Solution Cell Proliferation Assay (MTS, Promega).

[2] = test system: Colo205; assay: Potentiation assay (MTS, 72 hours); type: cell-based, human; conditions: IC50(cytotoxic agent alone) / IC50(combination treatment)
Procedure: as §1

[3] = test system: H460; assay: Potentiation assay (MTS, 72 hours); type: cell-based, human; conditions: IC50(cytotoxic agent alone) / IC50(combination treatment)
Procedure: as §1

[4] = test system: HCT116; assay: Potentiation assay (MTS, 72 hours); type: cell-based, human; conditions: IC50(cytotoxic agent alone) / IC50(combination treatment)
Procedure: as §1

[5] = test system: HT29; assay: Potentiation assay (MTS, 72 hours); type: cell-based, human; conditions: IC50(cytotoxic agent alone) / IC50(combination treatment)
Procedure: as §1

[6] = test system: NCI-H520; assay: Potentiation assay (MTS, 72 hours); type: cell-based, human; conditions: IC50(cytotoxic agent alone) / IC50(combination treatment)
Procedure: as §1

[7] = test system: PC3; assay: Potentiation assay (MTS, 72 hours); type: cell-based, human; conditions: IC50(cytotoxic agent alone) / IC50(combination treatment)
Procedure: as §1

[8] = test system: SW620; assay: Potentiation assay (MTS, 72 hours); type: cell-based, human; conditions: IC50(cytotoxic agent alone) / IC50(combination treatment)
Procedure: as §1

[9] = test system: Colo205 xenografts; assay: Colo205 xenograft antitumor efficacy; type: in vivo; conditions: Colo205, 75 mg/kg IP irinotecan alone (V158411 0 mg/kg)
From the text: (§2) Xenograft studies were undertaken by Charles River Laboratories Discovery Services, North Carolina. On the day of tumor cell implant, Colo205 cells were harvested and resuspended in 50% Matrigel matrix (BD Biosciences) in PBS at a concentration of 5 × 10^6 cells/mL. Each test mouse received 1 × 10^6 Colo205 cells implanted subcutaneously (SC) in the flank of female athymic nude mice (HRLN or NCr nu/nu), and tumor growth was monitored as the average size approached 100-150 mm^3. The SW620 tumor line was maintained by serial SC transplantation in female athymic nude mice (HRLN nu/nu). Tumor fragments, approximately 1 mm^3 each, were implanted SC into the right flank of each animal and allowed to grow towards a target size of 100-150 mm^3. On day 1 of the study, tumors were randomized into treatment groups before compound administration.
(§3) V158411 was formulated in D5W and administered via IV injection into the tail vein. Cyclic treatment regimens were followed and treatment ranged from 2-3 cycles.
(§4) Tumor size was measured with electronic calipers and tumor volume calculated according to the formula ((width × width) × length) /2.
(§5) The study endpoint was defined as a tumor volume of 750 mm^3 for Colo205 or 1500 mm^3 for SW620, or day 60, whichever came first. Each animal was euthanized when its' tumor reached this endpoint. The time to endpoint (TTE) for each mouse was calculated from the equation TTE = (log10(endpoint volume)-b)/m where b is the intercept and m the slope of the line obtained by linear regression of a log-transformed tumor growth data set.

[10] = test system: SW620 xenograft; assay: SW620 xenograft antitumor efficacy; conditions: for Median TTE: SW620, 100 mg/kg irinotecan alone (V158411 0 mg/kg); for %TGD / T-C: SW620, 100 mg/kg irinotecan alone
From the text: as §2, §3, §4, §5

[11] = biological target: T1, Chk1 (Homo sapiens, UniProt O14757); assay: In vitro kinase assay, Chk1; type: biochemical; conditions: for LE: ligand efficiency, Chk1
T1 sequence (O14757 1-476): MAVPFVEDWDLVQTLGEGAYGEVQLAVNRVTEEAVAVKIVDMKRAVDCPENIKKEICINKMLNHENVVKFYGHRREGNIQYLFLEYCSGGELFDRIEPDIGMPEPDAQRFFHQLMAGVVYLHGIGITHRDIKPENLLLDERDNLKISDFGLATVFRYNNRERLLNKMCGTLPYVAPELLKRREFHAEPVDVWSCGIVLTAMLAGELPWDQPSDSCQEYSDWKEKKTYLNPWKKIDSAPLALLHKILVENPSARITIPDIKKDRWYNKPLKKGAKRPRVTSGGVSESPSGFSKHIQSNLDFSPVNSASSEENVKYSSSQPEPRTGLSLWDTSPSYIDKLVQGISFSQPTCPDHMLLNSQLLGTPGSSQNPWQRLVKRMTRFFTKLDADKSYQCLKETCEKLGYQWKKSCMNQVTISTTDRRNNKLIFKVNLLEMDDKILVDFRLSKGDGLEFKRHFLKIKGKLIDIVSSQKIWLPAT
Procedure: Kinase assays were performed as previously described.

pIC50 [11]	Compound	Fold Potentiation by V158411 (400nM) [1]	Fold Potentiation by V158411 (400nM) [2]	Fold Potentiation by V158411 (400nM) [3]	Fold Potentiation by V158411 (400nM) [4]	Fold Potentiation by V158411 (400nM) [5]	Fold Potentiation by V158411 (400nM) [6]	Fold Potentiation by V158411 (400nM) [7]	Fold Potentiation by V158411 (400nM) [8]	other results
	CC[C@@]1(O)C(=O)OCc2c1cc1n(c2=O)Cc2cc3ccccc3nc2-1 [Camptothecin]	0.7 fold	6.0 fold	0.8 fold	0.8 fold	11.4 fold	1.8 fold	6.3 fold	10.6 fold	
	N.N.[Cl][Pt][Cl] [Cisplatin]	0.8 fold	5.3 fold	0.7 fold	0.6 fold	10.1 fold	1.9 fold	1.7 fold	2.5 fold	
	Nc1ccn([C@@H]2O[C@H](CO)[C@@H](O)C2(F)F)c(=O)n1 [Gemcitabine]	4.5 fold	8.4 fold	4.5 fold	1.5 fold	27.1 fold	8.9 fold	6.7 fold	3.0 fold	
	CCc1c2c(nc3ccc(OC(=O)N4CCC(N5CCCCC5)CC4)cc13)-c1cc3c(c(=O)n1C2)COC(=O)[C@]3(O)CC [Irinotecan, reference compound]									%TGD [9]: 78%; T-C [9]: 15.5; Median TTE ([9]; q7d 3 cycles, endpoint 750 mm^3): 35.4 days; Median TTE ([10]; study with 30 mg/kg V158411, endpoint 1500 mm^3): 24.1 days; Median TTE ([10]; study with 60 mg/kg V158411, endpoint 1500 mm^3): 24.1 days; %TGD ([10]; study with 30 mg/kg V158411): 81%; T-C ([10]; study with 30 mg/kg V158411): 10.8; %TGD ([10]; study with 60 mg/kg V158411): 75%; T-C ([10]; study with 60 mg/kg V158411): 10.3
	CCc1c2c(nc3ccc(O)cc13)-c1cc3c(c(=O)n1C2)COC(=O)[C@]3(O)CC [SN38]		> 10 fold	1.0 fold	1.3 fold	18.7 fold		> 10 fold	7.6 fold	
~4.00	O=c1[nH]cccc1-c1nc2ccccc2[nH]1 [VER-154637]									LE [11]: > 0.30
5.38	CCNC(=O)c1c[nH]c(=O)c(-c2cc3ccccc3[nH]2)c1 [VER-154931]									Chk1 IC50 [11]: low μM inhibitor
< 3.40	Cn1cc(NC(=O)c2c[nH]c(=O)c(-c3cc4ccccc4[nH]3)c2)cn1 [VER-155175]									Chk1 IC50 [11]: disappointing affinity
7.77	O=C(Nc1cnn(Cc2ccccc2)c1)c1c[nH]c(=O)c(-c2cc3ccccc3[nH]2)c1 [VER-155422]									LE [11]: 0.35
8.12	O=C(Nc1c[nH]c(=O)c(-c2cc3ccccc3[nH]2)c1)c1cnn(Cc2ccccc2)c1 [VER-155991]									increase in potency ([11]; Chk1 IC50, inversion of the amide linker, versus VER-155422): 2 fold
